Non-standard residues stand in square brackets, D forms with d. Residues, ends and D or L forms follow the SMILES beside them. Aib = CC(C)(N)C(=O)O

Data set [1] deals with MCF-7 MIII human breast cancer cell line xenografts. The note with it: MCF-7 MIII xenografts, female athymic nude mice, after 2 weeks of treatment, alone or in combination with SB-75; cited from earlier work.
Data set [2] relates to human gastric cancer cell line Hs746T xenografts. The note with it: nude mice bearing Hs746T xenografts; cited from earlier work.
The next data set relates to MlAPaCa2 (Pancreas). Briefly: two day MTT cytotoxicity assay (Example 12). The data set is classed as cell-based, human. On the procedure:
(§1) The cytoxicity of the peptide analog was carried out by two day MTT [3-(4,5-dimethylthiazol-2-yl)-2,5-diphenyl tetrazolium bromide]assay. MTT assay is based on the principle of uptake of MTT, a tetrazolium salt, by metabolically active cells where it is metabolized by active mitochondria into a blue colored formazon product, which can be read spectrometrically (J. of Immunological Methods 65: 55–63, 1983). To prepare the MTT stock solution needed, MTT was dissolved in phosphate buffered saline with a pH of 7.4 to obtain an MTT concentration of 5 mg/ml; the resulting mixture was filtered through a 0.22 micron filter to sterilize and remove a small amount of insoluble residue. This filtered mixture was the MTT stock solution.
(§2) Briefly, for each tumor type, 10,000 cells were seeded in 96-well tissue culture plate and incubated with each peptide concentration individually in a CO2 incubator for 48 hrs. The peptide analog at different concentrations was added once every 24 hrs during the incubation period. Control cultures, which were not treated with the peptide was similarly incubated. The assay was terminated by adding 100 μg (20 μl) of MTT to each well, incubating for three hours, decanting supernatant and finally adding 150 μl of dimethylsulphoxide to each well to dissolve the formazon. The plates were incubated for 15 minutes at 37° C. and read spectrophotometrically at 540 nm; and cytotoxicity percentage was calculated by following formula: • Cytotoxicity Percentage=100×[1−X/R1], • where X=(absorbance of the treated sample at 540 nm-absorbance of a blank at 540 nn) and • R1=(absorbance of the untreated control at 540 nm)—(absorbance of the blank at 540 nm).
(§3) Thus in each of the MTT cytotoxicity assay the percentage was calculated according to the above formula and was based on the proliferation of the untreated controls, the value of which was considered as 100°0.
(§4) The biological activity of synthesized peptide SEQ ID NO:3 was tested on different human tumor cell lines such as HT-29 & PTC (colon), A549 (non small lung cell), KB (oral squamous cell), MCF7 & MDA.MB.453 (Breast), HuTu80 (duodenum), PA-1 (ovary), MOLT-4 (leukemia) and MlAPaCa2 (Pancreas) at various molar concentrations.
(In general: Tetrazolium assays rely on reduction of a dye to a coloured formazan, in cell work by metabolically active cells.)

The next data set has as its system MOLT-4 (leukemia). Briefly: two day MTT cytotoxicity assay (Example 12). It is filed as cell-based, human. On the procedure:
as §1, §2, §3, §4

The subject of the next data set is HuTu80 (duodenum). Nature of the data set: two day MTT cytotoxicity assay (Example 12). It is filed as cell-based, human. Here is the method: as §1, §2, §3, §4
The subject of the next data set is HT-29 (colon). Briefly: two day MTT cytotoxicity assay (Example 12). The data set is classed as cell-based, human. Here is the method:
as §1, §2, §3, §4

For data set [3], the system named is A549 (non small lung cell). Briefly: two day MTT cytotoxicity assay (Example 12). It is filed as cell-based, human. On the procedure:
as §1, §2, §3, §4

A further data set has as its system KB (oral squamous cell). Nature of the data set: two day MTT cytotoxicity assay (Example 12). The data set is classed as cell-based, human. The note with it: 48 hrs. On the procedure: as §1, §2, §3, §4
The subject of another data set is MDA.MB.453 (Breast). Nature of the data set: two day MTT cytotoxicity assay (Example 12). It is filed as cell-based, human. On the procedure: as §1, §2, §3, §4
Another data set relates to MCF7 (Breast). Nature of the data set: two day MTT cytotoxicity assay (Example 12). It is filed as cell-based, human. On the procedure:
as §1, §2, §3, §4

In another data set the test system is PTC (colon). Briefly: two day MTT cytotoxicity assay (Example 12). The data set is classed as cell-based, human. The note with it: 48 hrs. Here is the method:
as §1, §2, §3, §4

The subject of the next data set is PA-1 (ovary). Nature of the data set: two day MTT cytotoxicity assay (Example 12). It is filed as cell-based, human. On the procedure:
as §1, §2, §3, §4

The subject of the next data set is SCLC xenograft. The note with it: in vivo; cited from earlier work.
The test system of another data set is intact SCLC cells. The note with it: 37° C., RPMI medium, 0–1080 minutes; cited from earlier work.

Consider “(DTpi6, Leu3, psi[CH2NH]—Leu14) bombesin (6–14) [RC-3095]”, for which the tumor volume result in data set [1] was “significant inhibition of tumor volume”. Further, the tumor growth result in data set [2] was “effectively inhibited tumor growth”.

Turning to `CC(C)C[C@H](NC(=O)[C@H](Cc1c[nH]cn1)NC(=O)C(C)(C)NC(=O)[C@@H](NC(=O)[C@H](C)NC(=O)[C@H](Cc1c[nH]c2ccccc12)NC(=O)[C@H](CCC(N)=O)NC(=O)[C@H](N)Cc1ccccc1)C(C)C)C(N)=O` [SEQ ID NO: 3, D-Phe-Gln-Trp-Ala-Val-Aib-His-Leu-NH2] (H-[dF]QWAV[Aib]HL-NH2; N-terminus assumed), the Percentage cytotoxicity with MlAPaCa2 (Pancreas) (MIAPaCa2, 10 pM, 48 hrs) was determined as 27.4 ± 4.5%; with MlAPaCa2 (Pancreas) (MIAPaCa2, 100 pM, 48 hrs), 28.2 ± 4.5%; with MlAPaCa2 (Pancreas) (MIAPaCa2, 10 nM, 48 hrs), 33.2 ± 6.7%; in the data set on MlAPaCa2 (Pancreas) (MIAPaCa2, 100 nM, 48 hrs), 30.3 ± 4.2%; with MlAPaCa2 (Pancreas) (MIAPaCa2, 1 μM, 48 hrs), 33.3 ± 4.5%; in the data set on MlAPaCa2 (Pancreas) (MIAPaCa2, 48 hrs), 36.4 ± 0.5%. The Percentage cytotoxicity is recorded as 49.9 ± 4.1% in the data set with MOLT-4 (leukemia) (MOLT-4, 10 pM, 48 hrs); 15.9 ± 3.0% in the data set with MOLT-4 (leukemia) (MOLT-4, 100 pM, 48 hrs); “Nil” in the data set on MOLT-4 (leukemia) (MOLT-4, 10 nM, 48 hrs); 1.4 ± 1.0% in the data set with MOLT-4 (leukemia) (MOLT-4, 100 nM, 48 hrs); 9.0 ± 1.2% in the data set on MOLT-4 (leukemia) (MOLT-4, 1 μM, 48 hrs); 1.0 ± 0.4% in the data set with MOLT-4 (leukemia) (MOLT-4, 48 hrs). Further, the Percentage cytotoxicity amounted to 10.3 ± 3.5% in the data set with HuTu80 (duodenum) (HuTu80, 10 pM, 48 hrs); 14.7 ± 4.2% in the data set with HuTu80 (duodenum) (HuTu80, 100 pM, 48 hrs); 14.3 ± 3.5% in the data set with HuTu80 (duodenum) (HuTu80, 10 nM, 48 hrs); 15.5 ± 4.7% with HuTu80 (duodenum) (HuTu80, 100 nM, 48 hrs); 12.2 ± 4.0% with HuTu80 (duodenum) (HuTu80, 1 μM, 48 hrs); 13.3 ± 4.0% in the data set on HuTu80 (duodenum) (HuTu80, 48 hrs). Moreover, the Percentage cytotoxicity with HT-29 (colon) (HT29, 10 pM, 48 hrs) is 18.7 ± 4.5%; in the data set on HT-29 (colon) (HT29, 100 pM, 48 hrs) it was 19.9 ± 5.5%; with HT-29 (colon) (HT29, 10 nM, 48 hrs), 11.8 ± 5.0%; in the data set on HT-29 (colon) (HT29, 100 nM, 48 hrs), 17.8 ± 4.5%; in the data set with HT-29 (colon) (HT29, 1 μM, 48 hrs), 25.4 ± 5.5%; in the data set with HT-29 (colon) (HT29, 48 hrs) it was 20.3 ± 4.5%. The Percentage cytotoxicity in data set [3] (A549, 10 pM, 48 hrs) was found to be 30.5 ± 3.5%; in data set [3] (A549, 100 pM, 48 hrs), 25.2 ± 3.5%; in data set [3] (A549, 10 nM, 48 hrs) it was 32.2 ± 5.5%; in data set [3] (A549, 100 nM, 48 hrs) it was 23.6 ± 4.5%; in data set [3] (A549, 1 μM, 48 hrs), 30.7 ± 6.5%; in data set [3] (A549, 48 hrs) it was 32.4 ± 4.5%. Besides, the Percentage cytotoxicity in the data set with KB (oral squamous cell) (10 pM) is on record as 40.9 ± 5.5%; with KB (oral squamous cell) (100 pM), 26.4 ± 4.5%; with KB (oral squamous cell) (10 nM), 30.9 ± 5.5%; with KB (oral squamous cell) (100 nM) it was 31.6 ± 6.5%; with KB (oral squamous cell) (1 μM), 32.1 ± 5.0%; in the data set on KB (oral squamous cell), 30.4 ± 6.5%. The Percentage cytotoxicity was 49.5 ± 4.2% with MDA.MB.453 (Breast) (MDA.MB.453, 10 pM, 48 hrs); 25.5 ± 2.9% in the data set on MDA.MB.453 (Breast) (MDA.MB.453, 100 pM, 48 hrs); “Nil” in the data set with MDA.MB.453 (Breast) (MDA.MB.453, 10 nM, 48 hrs); 11.2 ± 3.1% with MDA.MB.453 (Breast) (MDA.MB.453, 100 nM, 48 hrs); 5.6 ± 3.5% in the data set on MDA.MB.453 (Breast) (MDA.MB.453, 1 μM, 48 hrs); 9.6 ± 1.9% with MDA.MB.453 (Breast) (MDA.MB.453, 48 hrs). Besides, the Percentage cytotoxicity in the data set with MCF7 (Breast) (MCF 7, 10 pM, 48 hrs) was 39.33 ± 2.6%; with MCF7 (Breast) (MCF 7, 100 pM, 48 hrs), 38.95 ± 4.5%; in the data set with MCF7 (Breast) (MCF 7, 10 nM, 48 hrs), 24.35 ± 5%; in the data set on MCF7 (Breast) (MCF 7, 100 nM, 48 hrs), “Nil”; with MCF7 (Breast) (MCF 7, 1 μM, 48 hrs), “Nil”; with MCF7 (Breast) (MCF 7, 48 hrs), 30.68 ± 6%. Besides, the Percentage cytotoxicity is given as 80.0 ± 7.1% in the data set with PTC (colon) (10 pM); 26.5 ± 3.8% in the data set on PTC (colon) (100 pM); 27.7 ± 3.6% in the data set on PTC (colon) (10 nM); 27.7 ± 2.8% in the data set with PTC (colon) (100 nM); 17.9 ± 2.5% in the data set on PTC (colon) (1 μM); 23.8 ± 2.8% in the data set on PTC (colon). Besides, the Percentage cytotoxicity in the data set with PA-1 (ovary) (PA-1, 10 pM, 48 hrs) was 37.7 ± 3.9%; in the data set on PA-1 (ovary) (PA-1, 100 pM, 48 hrs), 40.1 ± 6.2%; in the data set on PA-1 (ovary) (PA-1, 10 nM, 48 hrs) it was 25.4 ± 4.2%; in the data set on PA-1 (ovary) (PA-1, 100 nM, 48 hrs), 34.2 ± 5.8%; with PA-1 (ovary) (PA-1, 1 μM, 48 hrs), 31.2 ± 5.1%; in the data set on PA-1 (ovary) (PA-1, 48 hrs), 36.1 ± 6.1%.

For [Psi 13, 14] Bombesin, in the data set with SCLC xenograft, the SCLC xenograft formation result is “inhibited SCLC xenograft formation in vivo in a dose-dependent manner”. Further, the “TI/2 (stability to metabolic enzymes)” value in the data set with intact SCLC cells was 646 min.

Source of the values: patent publication US6989371B1, “Bombesin analogs for treatment of cancer” (Dabur Research Foundation, priority 1996, dated 2006).
